According to patent US20230218618A1, “ADMINISTRATION OF SUMO-ACTIVATING ENZYME INHIBITOR AND ANTI-CD38 ANTIBODIES” (MILLENNIUM PHARMACEUTICALS, INC., priority 2020, published 2023):
Blank lines part the entries; values can stand above or below the compound they belong to.

Columns and labels:
[1] = test system: LP-1 human multiple myeloma cell line; test: Study 3: LP-1 xenograft human multiple myeloma subcutaneous tumor model; format: in vivo, CB17 SCID mice; conditions: for GRI%: vs vehicle
Method: (§1) Low tumor volumes can cause problems with the data analysis, so all measurements below 25 cubic mm (including 0 values) were excluded from the analysis. After this exclusion step, the tumor volume was assumed to follow an exponential growth model. More specifically, for a given animal and treatment group,
(§2) Pairwise comparisons were performed, where the mean growth rates were compared for various pairs of treatment conditions. The results were summarized using the growth rate inhibition (GRI). Suppose µT and µC are the mean tumor growth rates for the treatment and reference groups, respectively. Define
(§3) Here, µAB, µA, µB, and µControl are the mean growth rates for the combination, drug A, drug B, and control groups, respectively. As before, µv is the mean tumor growth rate for the vehicle group, which in most cases is the same as the control group. The standard error of the synergy score was calculated as the square root of the sum of squared standard errors across the four groups. The degrees of freedom were estimated using the Welch-Satterthwaite equation. A hypothesis test was performed to determine if the synergy score differed from 0. P-values were calculated by dividing the synergy score by its standard error and tested against a t-distribution (two-tailed) with the above-calculated degrees of freedom. A P value of less than 0.05 is statistically significant.
(§4) The combination results can be interpreted as follows. Statistically significant negative synergy scores indicate a synergistic combination (“Syn.”). Statistically significant positive synergy scores indicate a sub-additive combination (“Sub-add.”) when the combination performs better (i.e. has a lower growth rate) than the best performing single agent. Statistically significant positive synergy scores indicate an antagonistic combination (“Antag.”) when the combination performs worse than the best performing single agent. Scores that are not statistically significant should be considered additive (“Add.”).
LP-1 is a human multiple myeloma cell line. A LP-1 human xenograft tumor model was generated by subcutaneous inoculation with […] LP-1 cells (cell suspension) in 7 weeks old female CB17 SCID mice (Charles River Laboratories, 251 Ballardvale St., Wilmington, MA) in the flank. When the mean tumor volume reached approximately 100 mm^3, the animals were randomized into one vehicle control and seven treatment groups (n=8/group). Mice were then dosed with 20% HPβCD or Compound I-263a or daratumumab over a 35-day period. Tumor growth and body weight were measured twice per week during the treatment and post-treatment periods, and mice were humanely euthanized once they had reached their humane endpoint.
A 0.75 mg/mL stock solution of I-263a was formulated weekly in 20% HPβCD and administered IV based on an average body weight using a 0.2 mL dosing volume. Final dose I-263a received was 7.5 mg/kg. I-263a was administered on a BIW schedule for 5 weeks (Days 1, 4, 8, 11, 15, 18, 22, 25, 29 and 33). Daratumumab (anti-CD38 antibody) (Myoderm Medical Supplies, 48 E Main St., Norristown, PA 19401) was purchased at the beginning of the study and stored at 4° C. according to manufacturer’s instructions. Final dose daratumumab received was 2.5 mg/kg, 7.5 mg/kg, and 20 mg/kg based on average body weight. Daratumumab was administered intraperitoneally (IP) using a 0.1 mL dosing volume, on a BIW schedule for 5 weeks (Days 1, 4, 8, 11, 15, 18, 22, 25, 29 and 33).
Tumors were measured twice weekly using Vernier calipers. Tumor volumes were calculated using standard equation: V = W^2 × L/2, where V = volume, W = width, and L = length for the tumor. When mean tumor volumes reached approximately 100 mm^3, mice were randomized into control and treatment groups. Mice were randomized into 8 groups (n=8/group) and dosed with vehicle (20% HPβCD), I-263a, daratumumab, or the combination of I-263a plus daratumumab at doses and schedules as described above. […]

[2] = test system: RPMI-8226 human multiple myeloma cell line; test: Study 6: RPMI-8226 human multiple myeloma subcutaneous tumor model; format: in vivo, SCID mice; conditions: for Tumor growth compared to vehicle-treated tumors (pairwise comparison): I-263a 7.5 mg/kg BIW 2 weeks, daratumumab 2.5, 7.5 or 20 mg/kg BIW 2 weeks, or both, p > 0.05; for GRI%: vs vehicle
[3] = test system: Daudi human Burkitt’s Lymphoma cell line; test: Study 7: Daudi xenograft human Burkitt's lymphoma subcutaneous tumor model (daratumumab or AB79); format: in vivo, CB17 SCID mice; conditions: for GRI%: vs vehicle; for Tumor growth relative to vehicle-treated tumors (pairwise comparison): each agent 7.5 mg/kg BIW, I-263a p = 0.105, daratumumab p < 0.001, AB79 p = 0.002, both combinations p < 0.001, data up to Day 22
Method: as §1, §2, §3, §4
Daudi is a human Burkitt’s Lymphoma cell line. A Daudi human xenograft tumor model was generated by subcutaneous inoculation with 2.0 × 10^6 Daudi cells (cell suspension) in 7 weeks old female CB17 SCID mice (Charles River Laboratories, 251 Ballardvale St., Wilmington, MA) in the flank. When the mean tumor volume reached approximately 110 mm3, the animals were randomized into one vehicle control and six treatment groups (n=8/group). Mice were then dosed with 20% HPβCD or Compound I-263a and/or daratumumab or AB79 over a 21-day period. Tumor growth and body weight were measured twice per week during the treatment and post-treatment periods, and mice were humanely euthanized once they had reached their humane endpoint.
A 0.75 mg/mL stock solution of I-263a was formulated weekly in 20% HPβCD and administered intravenously (IV) based on an average body weight using a 0.2 mL dosing volume. Final doses of I-263a received were 7.5 mg/kg. I-263a was administered on a BIW schedule for 3 weeks (Days 1, 4, 8, 11, 15, and 18). Daratumumab (anti-CD38 antibody) (Myoderm Medical Supplies, 48 E Main St., Norristown, PA 19401) was purchased at the beginning of the study and stored at 4° C. according to manufacturer’s instructions. Final dose of daratumumab received was 7.5 mg/kg based on average body weight. Daratumumab was administered intraperitoneally (IP) using a 0.1 mL dosing volume, on a BIW schedule for 3 weeks (Days, 1, 4, 8, 11, 15, and 18). AB79 was formulated on the day of dosing in 0.9% saline and administered intraperitoneally (IP) using a 0.1 mL dosing volume, on a BIW schedule for 3 weeks (Days, 1, 4, 8, 11, 15, and 18). Final dose of AB79 was 7.5 mg/kg based on average body weight.
Tumors were measured twice weekly using Vernier calipers. Tumor volumes were calculated using standard equation: V = W2 × L/2, where V = volume, W = width, and L = length for the tumor. […]

SUMO-activating enzyme = SUMO-activating enzyme (Homo sapiens, UniProt Q9UBT2); test: Biochemical assays of SUMO-activating enzyme inhibition
[4] = test system: SUMO-activating enzyme and SUMOylation; test: Inhibition of SUMO-activating enzyme and SUMOylation in cultured tumor cell lines; format: cell-based; conditions: cultured mouse and human tumor cell lines
[5] = I-263a 7.5 mg/kg BIW 5 weeks (p < 0.01), daratumumab 20 mg/kg (p < 0.01), I-263a 7.5 mg/kg BIW with daratumumab 2.5, 7.5 or 20 mg/kg (p < 0.001)

Chain of SUMO-activating enzyme (Q9UBT2 whole entry): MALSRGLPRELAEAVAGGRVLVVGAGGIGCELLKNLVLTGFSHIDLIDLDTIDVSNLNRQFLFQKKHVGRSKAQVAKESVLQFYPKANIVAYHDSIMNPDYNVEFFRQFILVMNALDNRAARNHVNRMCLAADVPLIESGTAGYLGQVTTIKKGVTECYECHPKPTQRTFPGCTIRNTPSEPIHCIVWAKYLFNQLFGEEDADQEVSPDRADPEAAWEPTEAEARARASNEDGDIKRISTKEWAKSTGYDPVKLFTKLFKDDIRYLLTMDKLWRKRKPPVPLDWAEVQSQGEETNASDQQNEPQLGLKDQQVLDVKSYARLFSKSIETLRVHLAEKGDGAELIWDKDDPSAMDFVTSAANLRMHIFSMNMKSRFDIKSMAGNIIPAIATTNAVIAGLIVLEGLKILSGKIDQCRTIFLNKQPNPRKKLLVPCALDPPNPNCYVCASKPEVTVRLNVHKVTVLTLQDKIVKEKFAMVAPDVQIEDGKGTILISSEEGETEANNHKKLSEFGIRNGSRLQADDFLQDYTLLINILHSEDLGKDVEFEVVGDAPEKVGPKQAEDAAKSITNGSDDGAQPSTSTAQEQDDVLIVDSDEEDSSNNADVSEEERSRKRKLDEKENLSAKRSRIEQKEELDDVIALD
Chain of SUMO-activating enzyme (Q9UBE0 whole entry partner): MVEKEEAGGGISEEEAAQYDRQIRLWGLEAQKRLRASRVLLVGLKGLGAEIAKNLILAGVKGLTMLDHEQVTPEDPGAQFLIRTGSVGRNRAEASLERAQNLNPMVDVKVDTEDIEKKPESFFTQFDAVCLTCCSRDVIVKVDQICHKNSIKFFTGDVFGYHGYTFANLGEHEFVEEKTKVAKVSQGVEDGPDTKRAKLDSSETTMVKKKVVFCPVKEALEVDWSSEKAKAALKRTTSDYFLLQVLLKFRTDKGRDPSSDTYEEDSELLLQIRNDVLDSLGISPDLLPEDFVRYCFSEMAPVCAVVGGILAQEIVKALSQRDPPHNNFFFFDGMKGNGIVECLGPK
Chain of SUMO-activating enzyme (P63165 1-97 partner limits assumed): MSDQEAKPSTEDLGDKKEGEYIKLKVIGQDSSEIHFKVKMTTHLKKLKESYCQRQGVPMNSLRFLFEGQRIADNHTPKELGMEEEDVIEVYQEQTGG

Inhibition of SUMO-activating enzyme activity (SUMO-activating enzyme; mechanism-based inhibitor forming a covalent adduct with SUMO): potently inhibits enzyme activity | Selectivity for SUMO-activating enzyme (SUMO-activating enzyme; over ubiquitin-activating enzyme, Nedd8-activating enzyme, and autophagy related 7 enzyme): Strong selectivity
Compound: Cc1sc(C(=O)c2cncnc2N[C@@H]2C[C@H](COS(N)(=O)=O)[C@@H](O)C2)cc1[C@@H]1NCCc2ccc(Cl)cc21 [Compound I-263a, [(1R,2S,4R)-4-{[5-({4-[(1R)-7-chloro-1,2,3,4-tetrahydroisoquinolin-1-yl]-5-methyl-2-thienyl}carbonyl)pyrimidin-4-yl]amino}-2-hydroxycyclopentyl]methyl sulfamate]
Tumor growth compared to vehicle treated mice (pairwise comparison) [1, 5]: significant tumor growth inhibition | Tumor volume on Day 17 (± SEM) ([1]; I-263a 7.5 mg/kg BIW IV): 1043.3 ± 260.1 | GRI% ([1]; I-263a 7.5 mg/kg BIW IV): 15% | Tumor growth compared to vehicle-treated tumors (pairwise comparison) [2]: not significantly different than vehicle-treated tumors | Tumor volume on Day 20 (± SEM) ([2]; I-263a 7.5 mg/kg BIW IV): 1763.2 ± 213.2 | GRI% ([2]; I-263a 7.5 mg/kg BIW IV): -12% | Tumor Volume on Day 22 (±SEM) ([3]; I-263a 7.5 mg/kg BIW IV): 1305 (±83.6) | GRI% ([3]; I-263a 7.5 mg/kg BIW IV): 13% | Tumor growth relative to vehicle-treated tumors (pairwise comparison) [3]: tumor growth inhibition | Inhibition of SUMO-activating enzyme and SUMOylation in cells [4]: Selective and potent inhibition

Compound: Daratumumab: immunoglobulin G1 kappa (IgG1κ) human monoclonal antibody against CD38 antigen
Tumor volume on Day 17 (± SEM) ([1]; Daratumumab 2.5 mg/kg BIW IP): 988.8 ± 183.4 | GRI% ([1]; Daratumumab 2.5 mg/kg BIW IP): 16% | Tumor volume on Day 17 (± SEM) ([1]; Daratumumab 7.5 mg/kg BIW IP): 1204.8 ± 190.1 | GRI% ([1]; Daratumumab 7.5 mg/kg BIW IP): 8% | Tumor volume on Day 17 (± SEM) ([1]; Daratumumab 20 mg/kg BIW IP): 1078 ± 207.7 | GRI% ([1]; Daratumumab 20 mg/kg BIW IP): 10% | Tumor growth compared to vehicle treated mice (pairwise comparison) [1, 5]: significant tumor growth inhibition | Tumor growth compared to vehicle treated mice (pairwise comparison) ([1]; daratumumab 2.5 mg/kg or 7.5 mg/kg single agent, p > 0.05): not significantly different from vehicle treated mice | Tumor volume on Day 20 (± SEM) ([2]; Daratumumab 2.5 mg/kg BIW IP): 1875.5 ± 170.1 | GRI% ([2]; Daratumumab 2.5 mg/kg BIW IP): -6% | Tumor volume on Day 20 (± SEM) ([2]; Daratumumab 7.5 mg/kg BIW IP): 1510.7 ± 144.6 | GRI% ([2]; Daratumumab 7.5 mg/kg BIW IP): -2% | Tumor volume on Day 20 (± SEM) ([2]; Daratumumab 20 mg/kg BIW IP): 1456.6 ± 166.6 | GRI% ([2]; Daratumumab 20 mg/kg BIW IP): 11% | Tumor growth compared to vehicle-treated tumors (pairwise comparison) [2]: not significantly different than vehicle-treated tumors | Tumor Volume on Day 22 (±SEM) ([3]; Daratumumab 7.5 mg/kg BIW IP): 1004.9 (±97.1) | GRI% ([3]; Daratumumab 7.5 mg/kg BIW IP): 31% | Tumor growth relative to vehicle-treated tumors (pairwise comparison) [3]: tumor growth inhibition
